In the supplement of paper PMC10307832:

How the values were obtained:
Assay in all cases: relative viability (nuclei count vs DMSO), 5 days (fraction); higher = more cells survive
[1] = compound: CC1=C(C=CC(=C1)[N+](=O)[O-])NS(=O)(=O)C2=C(C=CC(=C2)Cl)Cl [FH535] + Cc1nc(Nc2ncc(C(=O)Nc3c(C)cccc3Cl)s2)cc(N2CCN(CCO)CC2)n1 [Dasatinib] (partner 0.075 µM)
In short: (§1)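 Lung cancer cell lines in 1536-well plates got either a single drug or a fixed anchor-drug dose together with five library-drug doses (not always all listed) in √10 steps, by pin tool, on the day after seeding. Nuclei were counted after 5 days, and relative viability is the treated-to-vehicle ratio of nuclei counts. Values are medians of duplicate plates.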

[2] = compound: CC1=C(C=CC(=C1)[N+](=O)[O-])NS(=O)(=O)C2=C(C=CC(=C2)Cl)Cl [FH535] + Cc1cc(Nc2cc(N3CCN(C)CC3)nc(Sc3ccc(NC(=O)C4CC4)cc3)n2)n[nH]1 [Tozasertib] (partner 0.1 µM)
In short: as §1

[3] = compound: CC1=C(C=CC(=C1)[N+](=O)[O-])NS(=O)(=O)C2=C(C=CC(=C2)Cl)Cl [FH535] + CC1(C)CCC(c2ccc(Cl)cc2)=C(CN2CCN(c3ccc(C(=O)NS(=O)(=O)c4ccc(N[C@H](CCN5CCOCC5)CSc5ccccc5)c(S(=O)(=O)C(F)(F)F)c4)cc3)CC2)C1 [Navitoclax] (partner 0.5 µM)
In short: as §1

[4] = compound: CC1=C(C=CC(=C1)[N+](=O)[O-])NS(=O)(=O)C2=C(C=CC(=C2)Cl)Cl [FH535] + Nc1ncn([C@H]2C[C@H](O)[C@@H](CO)O2)c(=O)n1 [Decitabine] (partner 2 µM)
In short: as §1

[5] = compound: CC1=C(C=CC(=C1)[N+](=O)[O-])NS(=O)(=O)C2=C(C=CC(=C2)Cl)Cl [FH535] + COc1cc2c(Oc3ccc(NC(=O)C4(C(=O)Nc5ccc(F)cc5)CC4)cc3F)ccnc2cc1OCCCN1CCOCC1 [Foretinib] (partner 0.25 µM)
In short: as §1

Row | Cell Line | relative viability ([1]; first compound 0.04 µM) | relative viability ([1]; first compound 0.1265 µM) | relative viability ([1]; first compound 0.4 µM) | relative viability ([1]; first compound 1.265 µM) | relative viability ([2]; first compound 0.04 µM) | relative viability ([2]; first compound 0.1265 µM) | relative viability ([2]; first compound 0.4 µM) | relative viability ([2]; first compound 1.265 µM) | relative viability ([3]; first compound 0.04 µM) | relative viability ([3]; first compound 0.1265 µM) | relative viability ([3]; first compound 0.4 µM) | relative viability ([3]; first compound 1.265 µM) | relative viability ([4]; first compound 0.04 µM) | relative viability ([4]; first compound 0.1265 µM) | relative viability ([4]; first compound 0.4 µM) | relative viability ([4]; first compound 1.265 µM) | relative viability ([5]; first compound 0.04 µM) | relative viability ([5]; first compound 0.1265 µM) | relative viability ([5]; first compound 0.4 µM) | relative viability ([5]; first compound 1.265 µM)
1 | NCI-H1651 | 0.397 | 0.419 | 0.284 | 0.201 | 0.753 | 0.639 | 0.633 | 0.64 | 1.15 | 1.2 | 1.05 | 0.864 | 0.562 | 0.602 | 0.622 | 0.447 | 0.888 | 0.856 | 0.697 | 0.584
2 | NCI-H1666 | 0.833 | 0.85 | 0.716 | 0.64 | 0.6 | 0.544 | 0.631 | 0.545 | 0.934 | 0.956 | 1.07 | 0.693 | 0.718 | 0.686 | 0.733 | 0.626 | 0.919 | 0.975 | 0.913 | 0.8
3 | NCI-H1734 | – | 0.507 | 0.476 | 0.431 | – | 0.26 | 0.263 | 0.297 | 0.802 | 0.902 | 0.86 | 0.735 | 0.501 | 0.501 | 0.56 | 0.471 | – | 0.91 | 0.886 | 0.773
4 | NCI-H1755 | 0.353 | 0.46 | 0.404 | 0.422 | 0.569 | 0.533 | 0.515 | 0.525 | 0.996 | 0.997 | 1.01 | 0.79 | 0.667 | 0.725 | 0.679 | 0.699 | 0.862 | 0.894 | 0.874 | 0.854
5 | NCI-H1793 | 0.321 | 0.342 | 0.296 | 0.339 | 0.305 | 0.297 | 0.353 | 0.213 | 0.49 | 0.573 | 0.469 | 0.325 | 0.449 | 0.571 | 0.487 | 0.422 | 0.347 | 0.775 | 0.798 | 0.458
6 | NCI-H1915 | 0.292 | 0.306 | 0.287 | 0.3 | 0.38 | 0.418 | 0.429 | 0.356 | 0.745 | 0.822 | 0.777 | 0.69 | 0.243 | 0.252 | 0.263 | 0.265 | 1.11 | 1.08 | 1.01 | 0.738
7 | NCI-H1944 | 0.179 | 0.209 | 0.222 | 0.204 | 0.237 | 0.265 | 0.234 | 0.236 | – | 1.01 | 0.975 | 0.924 | 0.391 | 0.489 | 0.414 | 0.441 | 0.855 | 0.922 | 0.882 | 0.857
8 | NCI-H1975 | 0.304 | 0.341 | 0.263 | 0.294 | 0.654 | 0.726 | 0.602 | 0.635 | 1.16 | 1.32 | 0.91 | 0.934 | 0.375 | 0.383 | 0.351 | 0.365 | 0.889 | 0.973 | 0.936 | 0.789
